Experimental data reported in US12263140B1, “Methods of reducing the production of greenhouse gases from animals” (AGRICULTURAL SCIENCES LIMITED, priority 2023, dated 2025).

Experiments:
Assay type in all cases: in vivo
[1] = system: sheep; test: Metabolic chamber trial of sheep drenched with vitamin K3
Protocol: Six one year old self shedding wether Wiltshire sheep were ranked by body weight and divided in to three strata or blocks. Block one contained the lightest sheep. Block 2 the mid-sized sheep, and Block 3 the heaviest sheep. Each of the sheep in each block was assigned at random to either be a control or experimental (dosed) individual.
The control group were not dosed at all.
Testing was completed at dosing and after 24 hours of methane emissions using a metabolic chamber. • The metabolic chamber used was made of sealed panel. All joints were made gas tight by sealing compounds, and the doors and hatches were made gas tight by rubber seals. The gas-tight metabolic chamber had viewing windows on one side, the top, and the exit door. Sheep entered after being weighed through an entrance door at one end. All doors and hatches were sealed by pull-down latches. • Air was introduced into the chamber by a 25 mm pipe assembly with the intake located in a pure air space area outside the work and animal holding areas. The air was propelled into the chamber by an electric impeller. The flow rate was set at 5 m·s^−1. Air inside the chamber was mixed by carefully placed baffles and an electric impeller to ensure even composition even when the animal burped out methane periodically.
When a sheep was introduced into the chamber it generally took between 2 and 3 minutes before the gas composition equilibrated and stayed constant. Readings were taken for few minutes once the gas levels had stabilised.
The dosing compound used as noted above, was human grade synthetic vitamin K3. This was dosed to the sheep as an aqueous oral fed drench.
A longer trial to the above was then completed with the same sheep.
Methane, carbon dioxide, volatile organic carbon (VOC) gas emissions and weight gain were measured at intervals during the trial time period of 241.2 hours.
Between being brought in for weighing and measuring, the sheep were allowed to graze normally on a grass field.

[2] = system: sheep; test: Sheep weight gain trial, vitamin K3 in drinking water, 22 days
Excerpt: A trial was completed using three randomly selected Wiltshire hogget wether sheep as the test subjects chosen from a wider group of sheep.
The test subject sheep were allowed access to the dosed water for a total of 5 days, after which the confinement was removed and the test subject and un-dosed control sheep mixed in the same field. From day 6 the test sheep grazed the wider field and received only un-dosed tap water, identical to the control sheep (see below).
The remaining wider group of sheep post removal of the three test subject sheep became the control sheep which were contained in a wider part of the same field as the test subject sheep for the first five days and then mixed with the test subject sheep after five days as noted above. The control sheep had access ad libitum to un-dosed tap water during the first five days of the trial and, as noted, the test sheep and control sheep both had access to the same tap water source ad libitum post the initial five days and to the trial end.
To account for this, two mature ewes from a neighbouring property (“naïve” sheep controls) were introduced to graze in the same field as the control sheep (and post day 5, the control and test sheep). The naïve sheep also had ad libitum access to un-dosed tap water for the duration of the trial. It was envisaged that the naïve sheep would re-infect the control and test sheep with methanogens once in the same field.
The sheep from each group were weighed at the start of the trial and after 22 days had concluded. The weight gain (or loss) was then calculated being the difference between the 22 day weight and that measured at the trial start.

[3] = system: sheep; test: Sheep methane output trial, vitamin K3 in drinking water; conditions: approximately 2 g per 20 litres drinking water; 48 h to 148 h, FIG. 21
Protocol: A trial was completed using Wiltshire hogget wether sheep.
The test sheep were able to drink further dosed water ad libitum while control sheep only had ad libitum access to tap water (un-dosed). Methane emitted by the test and control sheep was collected and emissions measured at intervals (48 h, 96 h, 120 h, 148 h).

[4] = system: sheep; test: TVOC and HCHO in exhalant breath of sheep dosed with vitamin K3 (skatole proxy)
Protocol: A trial was completed comparing the breath of test subject sheep dosed with vitamin K3 versus that of un-dosed sheep.
Total volatile organic compounds were measured in the exhalant breath of sheep. Two measurements were made being: • TVOC (Total Volatile Organic Compounds); and • HCHO (formaldehyde or equivalents).

[5] = system: sheep; test: CO2 in exhalant of sheep dosed with vitamin K3 in drinking water; conditions: FIG. 24
[6] = system: sheep; test: Metabolic chamber trial of sheep drenched with vitamin K3; conditions: Example 15 text; stated to be based on earlier experiments using the Douglas Bag technique
[7] = Controls group: un-dosed water in trial, but dosed with vitamin K3 around two months before
[8] = Dosed group: 1.87 g in 20 litres drinking water, access for 5 days

In the case of CC1=CC(=O)c2ccccc2C1=O [vitamin K3], the “methane in one trial sheep” value ([1]; Example 14, 24 hours post dosing) is reported as “no detectable trace of methane”, the “average reduction in methane emissions versus control sheep” value ([1]; Example 14, single drench 75 mg (76 mg) in 15 ml water, dosing to 24 hours) is reported as 96.4% and the “distress during the trial” value ([1]; Example 15) is reported as “showed no distress”. The “greatest reduction of methane emissions in any sheep” value ([1]; Example 15) was 100%, the “lowest value of the emission of methane from any sheep on any occasion” value ([1]; Example 15) was “zero” and the “CO2 concentration after dosing, before subtracting air baseline” value ([1]; Example 15, FIG. 18, metabolic chamber, from 1271 ppm) was 610 ppm. For the same compound, the “slope of best fit linear equation of mean body weight against HOURS” value ([1]; Example 15, FIG. 19, R2=0.781) was 2.18E-01, the “total VOC in exhalant breath” value ([1]; Example 15, FIG. 20) was “decreased over time” and the “average reduction in methane emissions” value ([1]; Example 15, single drench 75 mg in 15 ml water, 241.2 hours trial) was 80.5%. The “duration of the reduction in methane emissions after the single dose” value ([1]; Example 15, whole trial duration, no extra dosing) was 241.2 h, the Daily weight gain [2, 7] was 0.064 and the “Wt. Gain (kg) after 22 days” value [2, 7] was 1.400 kg. The Daily weight gain [2, 8] was 0.238, the “Wt. Gain (kg) after 22 days” value [2, 8] was 5.233 kg and the “methane emissions levels lower than control sheep” value [3] was 3-4 times. For the same compound, the “TVOC in breath, less than in un-dosed sheep” value ([4]; FIG. 22) was 4-5 times, the “impact on favourable indole compounds” value ([4]; inventor's observations, dosed sheep thrived) was “no negative impact” and the “CO2 volume produced, less than control sheep” value [5] was 3 ×. For the same compound, the “average reduction in carbon dioxide emissions” value [6] was 92%.
vitamin K was tested, and the animal growth rate ([1]; Example 15) was “increase in animal growth rate” and the “weight gain of control group (dosed two months earlier) relative to naïve sheep” value ([2]; 22 days) was 4-5 ×.
